Assays:
[1] = Inhibition of PP2A in human red blood cells; assay type: cell-based
[2] = Selectivity ratio of IC50 for rabbit skeletal muscle PP1 over IC50 for human PP2A; assay type: tissue-based; settings: Muscle tissue
[3] = (§1) Inhibition of bovine brain PP2B; parameters: species or system Bos taurus
[4] = Selectivity ratio of IC50 for rabbit skeletal muscle PP1 over IC50 for bovine brain PP2B; assay type: tissue-based; settings: Muscle tissue
[5] = Inhibition of PP1 in rabbit skeletal muscle; assay type: tissue-based, Oryctolagus cuniculus, Muscle tissue
Bos taurus = organism: Bos taurus; test: as §1

Row | Compound | IC50 [1] [µM] | Ratio IC50 [2] | IC50 [3] [µM] | Ratio IC50 [4] | IC50 [5] [µM] | IC50 (Bos taurus) [µM]
1 | O=C1OC(=O)C2C3CCC(O3)C12 (stereo unspecified) [DEMETHYL-CANTHARIDIN] | 2.69 | 3.8 | 31 | 0.33 | 10.3 | –
2 | O=C(NCCN1CCOCC1)C1C(C(=O)O)[C@H]2CC[C@@H]1O2 (stereo partly specified) | 43 | 0.7 | – | – | 30 | –
3 | O=C(Nc1ccc(N2CCOCC2)cc1)C1C(C(=O)O)[C@H]2CC[C@@H]1O2 (stereo partly specified) | 7.9 | 0.82 | 42 | 0.15 | 6.5 | –
4 | O=C(Nc1ccccc1CO)C1C(C(=O)O)[C@H]2CC[C@@H]1O2 (stereo partly specified) | 39 | 0.92 | – | – | 36 | –
5 | C[C@@]12C(=O)OC(=O)[C@]1(C)[C@H]1CC[C@@H]2O1 [CANTHARIDIN] | 0.99 | 7.7 | – | > 0.07 | 7.6 | > 100
6 | Cc1cccc(C)c1NC(=O)C1C(C(=O)O)[C@H]2CC[C@@H]1O2 (stereo partly specified) | 72 | 0.78 | – | – | 56 | –
7 | O=C(NCCCCc1ccccc1)C1C(C(=O)O)[C@H]2CC[C@@H]1O2 (stereo partly specified) | 95 | 0.79 | – | – | 75 | –
8 | CCCCCCOc1ccc(NC(=O)C2C(C(=O)O)[C@H]3CC[C@@H]2O3)cc1 (stereo partly specified) | 15 | 0.73 | – | – | 11 | –
9 | O=C(NCc1ccc(F)c(F)c1)C1C(C(=O)O)[C@H]2CC[C@@H]1O2 (stereo partly specified) | 26 | 1 | – | – | 26 | –
10 | O=C(Nc1ccc2ccccc2c1)C1C(C(=O)O)[C@H]2CC[C@@H]1O2 (stereo partly specified) | 15 | 0.93 | – | – | 14 | –
11 | COc1ccc(NC(=O)C2C(C(=O)O)[C@H]3CC[C@@H]2O3)cc1 (stereo partly specified) | 16 | 0.94 | – | – | 15 | –
12 | O=C(NCc1ccccc1)C1C(C(=O)O)[C@H]2CC[C@@H]1O2 (stereo partly specified) | 12 | 2.9 | – | – | 35 | –
13 | O=C(Nc1ccccc1)C1C(C(=O)O)[C@H]2CC[C@@H]1O2 (stereo partly specified) | 7.7 | 3.2 | – | – | 24.3 | –
14 | CN(C)CCNC(=O)C1C(C(=O)O)[C@H]2CC[C@@H]1O2 (stereo partly specified) | > 100 | < 0.67 | – | – | 67 | –
15 | Cc1cc(C)c(NC(=O)C2C(C(=O)O)[C@H]3CC[C@@H]2O3)c(C)c1 (stereo partly specified) | 85 | 0.56 | 89 | 0.54 | 48 | –
16 | Cc1cccc(NC(=O)C2C(C(=O)O)[C@H]3CC[C@@H]2O3)c1C (stereo partly specified) | 18 | 0.94 | – | – | 17 | –
17 | O=C(Nc1cccc(CO)c1)C1C(C(=O)O)[C@H]2CC[C@@H]1O2 (stereo partly specified) | 7 | 2.14 | – | – | 15 | –
18 | C#Cc1cccc(NC(=O)C2C(C(=O)O)[C@H]3CC[C@@H]2O3)c1 (stereo partly specified) | 18 | 0.94 | – | – | 17 | –
19 | O=C(NCc1ccc(C(F)(F)F)cc1)C1C(C(=O)O)[C@H]2CC[C@@H]1O2 (stereo partly specified) | 20 | 0.8 | – | – | 16 | –
20 | CSc1ccc(NC(=O)C2C(C(=O)O)[C@H]3CC[C@@H]2O3)cc1 (stereo partly specified) | 14 | 0.71 | – | – | 10 | –
21 | CCc1ccccc1NC(=O)C1C(C(=O)O)[C@H]2CC[C@@H]1O2 (stereo partly specified) | 24 | 2.12 | – | – | 51 | –
22 | CC(C)(C)c1ccc(NC(=O)C2C(C(=O)O)[C@H]3CC[C@@H]2O3)cc1 (stereo partly specified) | 11 | 0.91 | – | – | 10 | –
23 | O=C(NCCCc1ccccc1)C1C(C(=O)O)[C@H]2CC[C@@H]1O2 (stereo partly specified) | 25 | 1 | – | – | 25 | –
24 | CC(C)(C)c1ccc(NC(=O)C2C(C(=O)O)[C@H]3CC[C@@H]2O3)c(C(C)(C)C)c1 (stereo partly specified) | 8.2 | 1 | – | – | 8.2 | –
25 | CSc1ccccc1NC(=O)C1C(C(=O)O)[C@H]2CC[C@@H]1O2 (stereo partly specified) | 33 | 0.7 | – | – | 23 | –
26 | CN(C)CCCNC(=O)C1C(C(=O)O)[C@H]2CC[C@@H]1O2 (stereo partly specified) | 57 | 0.75 | – | – | 43 | –
